ChEMBL document CHEMBL3351221, “Synthetic derivatives of aromatic abietane diterpenoids and their biological activities” (Eur J Med Chem, 2014)
pIC50: −log10 of the molar value. In brackets after ≈: the same amount, converted by molar mass.

Assays:
[1] = Cytotoxicity against human HL60 cells; assay type: functional, cell-based; conditions: HL-60
[2] = tested on: Mus musculus; experiment: Gastroprotective activity in mouse assessed as reduction in HCl/EtOH-induced gastric lesions at 100 mg/kg; assay type: functional; conditions: Stomach
[3] = tested on: MRC5; experiment: Cytotoxicity against human MRC5 cells; assay type: cell-based
[4] = tested on: AGS; experiment: Cytotoxicity against human AGS cells; assay type: cell-based
[5] = tested on: SMMC-7721; experiment: Cytotoxicity against human SMMC7721 cells; assay type: functional, cell-based
[6] = tested on: Staphylococcus aureus; experiment: Antimicrobial activity against Staphylococcus aureus; assay type: functional
[7] = tested on: Escherichia coli; experiment: Antimicrobial activity against Escherichia coli; assay type: functional
[8] = Cytotoxicity against human Hey-1B cells; assay type: functional, cell-based
[9] = Cytotoxicity against human PC3 cells; assay type: functional, cell-based; conditions: PC-3
[10] = tested on: Mus musculus; experiment: Gastroprotective activity in mouse assessed as reduction in HCl/EtOH-induced gastric lesions at 20 mg/kg; assay type: functional; conditions: Stomach

With COC(=O)[C@H](C)NC(=O)[C@]1(C)CCC[C@]2(C)c3ccc(C(C)C)cc3CC[C@@H]12 the pIC50 [1] was 5.64.
For Cc1cc(C)cc(NC(=O)[C@]2(C)CCC[C@]3(C)c4ccc(C(C)C)cc4CC[C@@H]23)c1, the inhibition in vivo at 100 mg/kg [2] was 67%, the pIC50 [3] was less than 3.00 and the pIC50 [4] was less than 3.00.
For Cc1ccc(NC(=O)[C@]2(C)CCC[C@]3(C)c4ccc(C(C)C)cc4CC[C@@H]23)cc1, the inhibition in vivo at 100 mg/kg [2] was 67%, the pIC50 [3] was less than 3.00 and the pIC50 [4] was less than 3.00.
In the case of COc1ccc(NC(=O)[C@]2(C)CCC[C@]3(C)c4ccc(C(C)C)cc4CC[C@@H]23)cc1, the inhibition in vivo at 100 mg/kg [2] was 67%, the pIC50 [3] was less than 3.00 and the pIC50 [4] was less than 3.00.
For CC(C)c1ccc2c(c1)CC[C@H]1[C@](C)(C(=O)Nc3cccc([N+](=O)[O-])c3)CCC[C@]21C, the inhibition in vivo at 100 mg/kg [2] was 67%, the pIC50 [3] was less than 3.00 and the pIC50 [4] was less than 3.00.
CC(C)c1ccc2c(c1)CC[C@H]1[C@](C)(C(=O)Nc3ccccc3Cl)CCC[C@]21C gave an inhibition in vivo at 100 mg/kg [2] of 67%, a pIC50 [3] of less than 3.00 and a pIC50 [4] of less than 3.00.
Work on CC(C)c1ccc2c(c1)CC[C@H]1[C@](C)(C(=O)Nc3ccc(I)cc3)CCC[C@]21C yielded an inhibition in vivo at 100 mg/kg [2] of 67%, a pIC50 [3] of less than 3.00 and a pIC50 [4] of less than 3.00.
Work on CC(C)c1ccc2c(c1)CC[C@H]1[C@](C)(NC(=O)Nc3ccc(F)cc3)CCC[C@]21C yielded a pIC50 [5] of 5.06.
CC(C)c1ccc2c(c1)CC[C@H]1[C@](C)(NC(=O)Nc3cc(F)cc(F)c3)CCC[C@]21C gave a pIC50 [5] of 5.06.
CC(C)c1ccc2c(c1)CC[C@H]1[C@](C)(NC(=O)N3CCCCC3)CCC[C@]21C gave a pIC50 [5] of 5.06.
CC(C)c1ccc2c(c1)CC[C@H]1[C@](C)(C/N=C/c3ccc(F)cc3)CCC[C@]21C gave a pIC50 [5] of 4.35.
With COC(=O)C[C@H](NC(=O)[C@]1(C)CCC[C@]2(C)c3ccc(C(C)C)cc3CC[C@@H]12)C(=O)OC the pIC50 [1] was 5.64.
In the case of CCC(C)[C@H](NC(=O)[C@]1(C)CCC[C@]2(C)c3ccc(C(C)C)cc3CC[C@@H]12)C(=O)OC (stereo partly specified), the pIC50 [1] was 5.64.
In the case of COC(=O)[C@H](Cc1ccccc1)NC(=O)[C@]1(C)CCC[C@]2(C)c3ccc(C(C)C)cc3CC[C@@H]12, the pIC50 [1] was 5.64.
COC(=O)[C@H](CO)NC(=O)[C@]1(C)CCC[C@]2(C)c3ccc(C(C)C)cc3CC[C@@H]12 showed a pIC50 [1] of 5.64.
With COC(=O)[C@@H](NC(=O)[C@]1(C)CCC[C@]2(C)c3ccc(C(C)C)cc3CC[C@@H]12)C(C)C the pIC50 [1] was 5.64.
For CC(C)c1ccc2c(c1)CC[C@H]1[C@](C)(C[N+](C)(C)C)CCC[C@]21C.COS(=O)(=O)[O-], the MIC [6] was 7.81 µg/mL and the MIC [7] was 250 µg/mL.
Compound CC(C)c1ccc2c(c1)CC[C@H]1[C@](C)(CNCCO)CCC[C@]21C.Cl has an MIC [6] of 7.81 µg/mL and an MIC [7] of 250 µg/mL.
With CC(C)c1ccc2c(c1)CC[C@H]1[C@](C)(CNCc3ccccc3)CCC[C@]21C.Cl the MIC [6] was 7.81 µg/mL and the MIC [7] was 250 µg/mL.
Work on CC(C)c1ccc2c(c1)CC[C@H]1[C@](C)(C[N+](C)(CCO)CCO)CCC[C@]21C.COS(=O)(=O)[O-] yielded an MIC [6] of 7.81 µg/mL and an MIC [7] of 250 µg/mL.
Work on CC(C)c1ccc2c(c1)CC[C@H]1[C@](C)(C[N+](CCO)(CCO)CCO)CCC[C@]21C.[Cl-] yielded an MIC [6] of 7.81 µg/mL and an MIC [7] of 250 µg/mL.
With CC(C)c1ccc2c(c1)CC[C@H]1[C@](C)(C[N+](CCO)(CCO)Cc3ccccc3)CCC[C@]21C.[Cl-] the MIC [6] was 7.81 µg/mL and the MIC [7] was 250 µg/mL.
Work on CC(=O)NC[C@]1(C)CCC[C@]2(C)c3cc(/N=C/c4cc(Br)cc(Br)c4O)c(C(C)C)cc3CC[C@@H]12 yielded an IC50 [8] of 15 µg/mL (≈ 24.8 µM).
For CC(=O)NC[C@]1(C)CCC[C@]2(C)c3cc(/N=C/c4ccc(O)cc4O)c(C(C)C)cc3CC[C@@H]12, the IC50 [8] was 15 µg/mL (≈ 32.4 µM).
With CC(=O)NC[C@]1(C)CCC[C@]2(C)c3cc(/N=C/c4cccc(O)c4)c(C(C)C)cc3CC[C@@H]12 the IC50 [8] was 15 µg/mL (≈ 33.6 µM).
Compound CC(=O)NC[C@]1(C)CCC[C@]2(C)c3cc(/N=C/c4cc(O)ccc4O)c(C(C)C)cc3CC[C@@H]12 has an IC50 [8] of 15 µg/mL (≈ 32.4 µM).
COc1ccc(/C=N/c2cc3c(cc2C(C)C)CC[C@H]2[C@](C)(CNC(C)=O)CCC[C@]32C)cc1 showed an IC50 [8] of 15 µg/mL (≈ 32.6 µM).
COc1ccc(NC(=O)[C@]2(C)CCC[C@]3(C)c4ccc(C(C)C)cc4CC[C@@H]23)c(OC)c1 showed an inhibition in vivo at 100 mg/kg [2] of 67%, a pIC50 [3] of less than 3.00 and a pIC50 [4] of less than 3.00.
With CC(C)c1cc2c(cc1[N+](=O)[O-])[C@@]1(C)CCC[C@@](C)(CNC(=O)c3ccccc3)[C@@H]1CC2 the IC50 [8] was 11.3 µg/mL (≈ 26 µM) and the IC50 [9] was 5.7 µg/mL (≈ 13.1 µM).
Compound CC(C)c1cc2c(cc1[N+](=O)[O-])[C@@]1(C)CCC[C@@](C)(CNC(=O)c3ccccc3Cl)[C@@H]1CC2 has an IC50 [8] of 11.3 µg/mL (≈ 24.1 µM) and an IC50 [9] of 5.7 µg/mL (≈ 12.2 µM).
For CC(C)c1ccc2c(c1)CC[C@H]1C(C)(C)CCC[C@]21C, the inhibition in vivo at 20 mg/kg [10] was 69%.
With CC(Cl)C(=O)Oc1cc2c(cc1C(C)C)CC[C@H]1C(C)(C)CCC[C@]21C (stereo partly specified) the pIC50 [3] was 4.72, the pIC50 [4] was 4.74 and the inhibition in vivo at 20 mg/kg [10] was 76%.
Compound C=CC(=O)Oc1cc2c(cc1C(C)C)CC[C@H]1C(C)(C)CCC[C@]21C has a pIC50 [3] of 4.72, a pIC50 [4] of 4.74 and an inhibition in vivo at 20 mg/kg [10] of 67%.
With CC(=O)OC[C@H]1O[C@@H](Oc2cc3c(cc2C(C)C)CC[C@H]2C(C)(C)CCC[C@]32C)[C@H](OC(C)=O)[C@@H](OC(C)=O)[C@@H]1OC(C)=O the pIC50 [3] was less than 3.00, the pIC50 [4] was less than 3.00 and the inhibition in vivo at 20 mg/kg [10] was 72%.
CC(C)c1cc2c(cc1O[C@@H]1O[C@H](CO)[C@H](O)[C@H](O)[C@H]1O)[C@@]1(C)CCCC(C)(C)[C@@H]1CC2 gave a pIC50 [3] of 4.72, a pIC50 [4] of 4.74 and an inhibition in vivo at 20 mg/kg [10] of 61%.
Compound CC(C)c1cc2c(cc1OC=O)[C@@]1(C)CCCC(C)(C)[C@@H]1CC2 has a pIC50 [3] of 4.72 and a pIC50 [4] of 4.74.
CC(=O)Oc1cc2c(cc1C(C)C)CC[C@H]1C(C)(C)CCC[C@]21C showed a pIC50 [3] of 4.72 and a pIC50 [4] of 4.74.
CCC(=O)Oc1cc2c(cc1C(C)C)CC[C@H]1C(C)(C)CCC[C@]21C gave a pIC50 [3] of 4.72 and a pIC50 [4] of 4.74.
With CC(C)c1cc2c(cc1O[C@@H]1O[C@H](CO)[C@@H](O)[C@H](O)[C@H]1O)[C@@]1(C)CCCC(C)(C)[C@@H]1CC2 the pIC50 [3] was 4.72 and the pIC50 [4] was 4.74.
CC(C)c1cc2c(cc1OC(=O)c1cccnc1)[C@@]1(C)CCCC(C)(C)[C@@H]1CC2 showed a pIC50 [3] of less than 3.00, a pIC50 [4] of 4.66 and an inhibition in vivo at 20 mg/kg [10] of 71%.
In the case of CCCCCCCCCCCCCCCC(=O)Oc1cc2c(cc1C(C)C)CC[C@H]1C(C)(C)CCC[C@]21C, the pIC50 [3] was less than 3.00 and the inhibition in vivo at 20 mg/kg [10] was 50%.
CCCCCCCC/C=C/CCCCCCCC(=O)Oc1cc2c(cc1C(C)C)CC[C@H]1C(C)(C)CCC[C@]21C showed a pIC50 [3] of less than 3.00 and an inhibition in vivo at 20 mg/kg [10] of 50%.
Work on Cc1c(C(=O)Oc2cc3c(cc2C(C)C)CC[C@H]2C(C)(C)CCC[C@]32C)oc2ccccc12 yielded a pIC50 [3] of less than 3.00 and an inhibition in vivo at 20 mg/kg [10] of 50%.
Work on CC(C)c1cc2c(cc1OC(=O)Cc1c[nH]c3ccccc13)[C@@]1(C)CCCC(C)(C)[C@@H]1CC2 yielded a pIC50 [3] of less than 3.00, a pIC50 [4] of 4.92 and an inhibition in vivo at 20 mg/kg [10] of 50%.
CC(C)c1cc2c(cc1OC(=O)CCCc1c[nH]c3ccccc13)[C@@]1(C)CCCC(C)(C)[C@@H]1CC2 showed a pIC50 [3] of less than 3.00 and an inhibition in vivo at 20 mg/kg [10] of 50%.
With CC(C)c1cc2c(cc1OC(=O)c1cc([N+](=O)[O-])cc([N+](=O)[O-])c1)[C@@]1(C)CCCC(C)(C)[C@@H]1CC2 the pIC50 [3] was less than 3.00 and the pIC50 [4] was 4.54.
With CC(C)c1cc2c(cc1O)[C@@]1(C)CCCC(C)(C)[C@@H]1CC2 [FERRUGINOL] the pIC50 [3] was 4.72 and the pIC50 [4] was 4.74.
